Data published in US10570184B2, “GLP-1/glucagon receptor co-agonists for medical use” (Novo Nordisk A/S, priority 2014, dated 2020).
Starred links: 1 amine or outer side, 2 acyl side, 3 side chain; linkers in the order of their positions; H or OH if unused. Non-standard residues stand in square brackets, D forms with d. Residues, ends and D or L forms follow the SMILES beside them. Groups on a side chain read outwards from the residue. *: point of attachment. C18 diacid = O=C(O)CCCCCCCCCCCCCCCCC(=O)*; γGlu = O=C(O)[C@H](CCC(=O)[*:2])N[*:1]; AEEA = NCCOCCOCC(=O)O; Aib = CC(C)(N)C(=O)O

Legend:
human GLP-1 receptor [1] = molecular target: T1, human GLP-1 receptor (Homo sapiens, UniProt P43220); assay: Assay (I)(a) GLP-1 receptor activation, CRE luciferase reporter gene assay in BHK cells; assay type: cell-based; conditions: without presence of serum albumin; read-out: GLP-1R EC50 (pM) [Assay (I)(a)]
T1 construct: expressed in transfected cells; host or cells: membranes of BHK cells (parent BHKTS13), clone FCW467-12A
T1 sequence (P43220 24-463): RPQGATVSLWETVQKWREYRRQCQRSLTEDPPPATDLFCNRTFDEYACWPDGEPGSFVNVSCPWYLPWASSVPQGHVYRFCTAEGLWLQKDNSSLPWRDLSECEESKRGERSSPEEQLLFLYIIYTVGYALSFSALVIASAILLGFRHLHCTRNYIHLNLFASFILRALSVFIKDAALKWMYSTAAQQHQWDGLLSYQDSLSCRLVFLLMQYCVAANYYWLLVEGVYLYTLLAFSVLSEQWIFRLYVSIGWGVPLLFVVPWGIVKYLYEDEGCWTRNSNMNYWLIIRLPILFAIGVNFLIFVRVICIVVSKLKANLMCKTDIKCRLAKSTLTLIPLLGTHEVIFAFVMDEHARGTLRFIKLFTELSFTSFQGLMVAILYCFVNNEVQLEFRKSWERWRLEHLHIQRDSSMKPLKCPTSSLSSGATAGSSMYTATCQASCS
Method: The purpose of this example was to test the activity or potency, of the glucagon derivatives of the invention, in vitro. The in vitro potency is the measure of human GLP-1 receptor (GLP-1R) or glucagon receptor (glucagonR) activation, respectively, in a whole cell assay. In vitro potency was determined by measuring the response of human GLP-1 or glucagon receptor, respectively, in a reporter gene assay. The assay was performed in a stably transfected BHK cell line that expresses either the human GLP-1 receptor or the human glucagon receptor and contains the DNA for the cAMP response element (CRE) coupled to a promoter and the gene for firefly luciferase (CRE luciferase). […] When assay incubation was completed, the luciferase substrate (luciferin) was added and the enzyme converted luciferin to oxyluciferin and produces bioluminescence. The luminescence was measured as the readout for the assay. The cells used in this assay (clone FCW467-12A/KZ10-1) were BHK cells with BHKTS13 as a parent cell line. The cells were derived from a clone (FCW467-12A) that expresses the human GLP-1 receptor and were established by further transfection with CRE luciferase to obtain the current clone. The cells were cultured at 5% CO2 in DMEM medium with 10% FBS, 1×GlutaMAX, 1 mg/ml G418, 240 nM MTX (methotrexate) and 1% pen/strep (penicillin/streptomycin). They were aliquoted and stored in liquid nitrogen. Before each assay, an aliquot was taken up and washed three times in PBS before being suspended at the desired concentration in assay medium. For 96-well plates the suspension was made to give a final concentration of 5×10EE3 cells/well. The following chemicals were used in the assay: Pluronic F-68 (10%) (Gibco 2404), ovalbumin (Sigma A5503), DMEM w/o phenol red (Gibco 11880-028), 1 M Hepes (Gibco 15630), Glutamax 100× (Gibco 35050) and steadylite plus (PerkinElmer 6016757). Assay Medium consisted of DMEM w/o phenol red, 10 mM Hepes, 1× GlutaMAX, 2% Ovalbumin and 0.2% Pluronic F-68. Cell stocks were thawed in a 37° C. water bath. Cells were washed three times in PBS. The cells were counted and adjusted to 5×10EE3 cells/50 μl (1×10EE5 cells/ml) in Assay Medium. A 50 μl aliquot of cells was transferred to each well in the assay plate. Stocks of the test compounds and reference compounds were diluted to a concentration of […] in Assay Medium. Compounds were diluted 10-fold to give the following concentrations: 2×10EE-6 M, 2×10EE-7 M, 2×10EE-8 M; 2×10EE-9 M, 2×10EE-10 M, 2×10EE-11 M, 2×10EE-12 M and 2×10EE-13 M. For each compound a blank assay medium control was also included. A 50 μl aliquot of compound or blank was transferred from the dilution plate to the assay plate. Compounds were tested at the following final concentrations: 1×10EE-6 M, 1×10EE-7 M, 1×10EE-8 M; 1×10EE-9 M, 1×10EE-10 M, 1×10EE-11 M and 1×10EE-12 M and 1×10EE-13 M. The assay plate was incubated for 3 h in a 5% CO2 incubator at 37° C. The assay plate was removed from the incubator and allowed to stand at room temperature for 15 min. A 100 μl aliquot of steadylite plus reagent was added to each well of the assay plate (reagent is light sensitive). Each assay plate was covered with aluminum foil to protect it from light and shaken for 30 min at room temperature. Each assay plate was read in a Perkin Elmer TopCount NXT instrument. The data from the TopCount instrument was transferred to GraphPad Prism software. The software performed a non-linear regression (log(agonist) vs response-Variable slope (four parameter)). EC50 values were calculated by the software and reported in pM.

human GLP-1 receptor [2] = molecular target: T1, human GLP-1 receptor; assay: Assay (II)(a) GLP-1 receptor binding, 125I-GLP-1 displacement SPA on BHK membranes; conditions: without presence of serum albumin; read-out: GLP-1R IC50 (nM) [Assay (II)(a)]
How it was run: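 Membranes from BHK cells (clone FCW467-12A) stably expressing human GLP-1R were incubated with serially diluted compounds (8×10EE-13 to 8×10EE-7 M before addition) and [125I]-GLP-1-(7-36)NH2 with WGA SPA beads, 2 h at 30° C, pH 7.4. IC50 taken from displacement by non-linear regression. Run at ≤0.001% or 2.0% final serum albumin.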

EC50 (human GLP-1 receptor [1]) [pM]	IC50 (human GLP-1 receptor [2]) [nM]	Structure (SMILES)
5	0.1	CC[C@H](C)[C@H](NC(=O)[C@H](CC(C)C)NC(=O)[C@H](Cc1c[nH]c2ccccc12)NC(=O)[C@H](CCC(N)=O)NC(=O)[C@@H](NC(=O)[C@H](Cc1ccccc1)NC(=O)[C@H](CCC(=O)O)NC(=O)[C@H](CCCNC(=N)N)NC(=O)[C@H](C)NC(=O)[C@H](CCCNC(=N)N)NC(=O)[C@H](CCCNC(=N)N)NC(=O)[C@H](C)NC(=O)[C@H](CC(=O)O)NC(=O)[C@H](CC(C)C)NC(=O)[C@H](Cc1ccc(O)cc1)NC(=O)[C@H](CCCCN)NC(=O)[C@H](CO)NC(=O)[C@H](CC(C)C)NC(=O)[C@H](CC(=O)O)NC(=O)[C@H](CO)NC(=O)[C@@H](NC(=O)[C@H](Cc1ccccc1)NC(=O)[C@@H](NC(=O)CNC(=O)[C@H](CCC(N)=O)NC(=O)C(C)(C)NC(=O)[C@@H](N)Cc1c[nH]cn1)[C@@H](C)O)[C@@H](C)O)C(C)C)C(=O)N[C@@H](CCCCNC(=O)COCCOCCNC(=O)COCCOCCNC(=O)CC[C@H](NC(=O)CC[C@H](NC(=O)CC[C@H](NC(=O)CCCCCCCCCCCCCCCCC(=O)O)C(=O)O)C(=O)O)C(=O)O)C(=O)N[C@H](C(N)=O)[C@@H](C)O [Chem. 6, N^ε28-[2-[2-[2-[[2-[2-[2-[[(4S)-4-carboxy-4-[[(4S)-4-carboxy-4-[[(4S)-4-carboxy-4-(17-carboxyheptadecanoylamino)butanoyl]amino]butanoyl]amino]butanoyl]amino]ethoxy]ethoxy]acetyl]amino]ethoxy]ethoxy]acetyl]-[Aib2,Leu10,Ala16,Arg20,Glu21,Ile27,Lys28]-Glucagon amide] (H-H[Aib]QGTFTSDLSKYLDARRAREFVQWLIK([AEEA-AEEA-γGlu-γGlu-γGlu-C18 diacid])T-NH2; N-terminus assumed)
2	0.1	CC[C@H](C)[C@H](NC(=O)[C@H](CC(C)C)NC(=O)[C@H](Cc1c[nH]c2ccccc12)NC(=O)[C@H](CCC(N)=O)NC(=O)[C@@H](NC(=O)[C@H](Cc1ccccc1)NC(=O)[C@H](CC(=O)O)NC(=O)[C@H](CCCNC(=N)N)NC(=O)[C@H](C)NC(=O)[C@H](CCCNC(=N)N)NC(=O)[C@H](CCCNC(=N)N)NC(=O)[C@H](CO)NC(=O)[C@H](CCC(=O)O)NC(=O)[C@H](CC(C)C)NC(=O)[C@H](Cc1ccc(O)cc1)NC(=O)[C@H](CCCCN)NC(=O)[C@H](CO)NC(=O)[C@H](CC(C)C)NC(=O)[C@H](CC(=O)O)NC(=O)[C@H](CO)NC(=O)[C@@H](NC(=O)[C@H](Cc1ccccc1)NC(=O)[C@@H](NC(=O)CNC(=O)[C@H](CCC(N)=O)NC(=O)C(C)(C)NC(=O)[C@@H](N)Cc1c[nH]cn1)[C@@H](C)O)[C@@H](C)O)C(C)C)C(=O)N[C@@H](CCCCNC(=O)COCCOCCNC(=O)COCCOCCNC(=O)CC[C@H](NC(=O)CC[C@H](NC(=O)CC[C@H](NC(=O)CCCCCCCCCCCCCCCCC(=O)O)C(=O)O)C(=O)O)C(=O)O)C(=O)N[C@H](C(N)=O)[C@@H](C)O [Chem. 3, N^ε28-[2-[2-[2-[[2-[2-[2-[[(4S)-4-carboxy-4-[[(4S)-4-carboxy-4-[[(4S)-4-carboxy-4-(17-carboxyheptadecanoylamino)butanoyl]amino]butanoyl]amino]butanoyl]amino]ethoxy]ethoxy]acetyl]amino]ethoxy]ethoxy]acetyl]-[Aib2,Leu10,Glu15,Arg20,Ile27,Lys28]-Glucagon amide] (H-H[Aib]QGTFTSDLSKYLESRRARDFVQWLIK([AEEA-AEEA-γGlu-γGlu-γGlu-C18 diacid])T-NH2; N-terminus assumed)
2	0.1	CC[C@H](C)[C@H](NC(=O)[C@H](CC(C)C)NC(=O)[C@H](Cc1c[nH]c2ccccc12)NC(=O)[C@H](CCC(N)=O)NC(=O)[C@@H](NC(=O)[C@H](Cc1ccccc1)NC(=O)[C@H](CC(=O)O)NC(=O)[C@H](CCCNC(=N)N)NC(=O)[C@H](C)NC(=O)[C@H](CCCNC(=N)N)NC(=O)[C@H](CCCNC(=N)N)NC(=O)[C@H](C)NC(=O)[C@H](CC(=O)O)NC(=O)[C@H](CC(C)C)NC(=O)[C@H](Cc1ccc(O)cc1)NC(=O)[C@H](CCCNC(=N)N)NC(=O)[C@H](CO)NC(=O)[C@H](CC(C)C)NC(=O)[C@H](CC(=O)O)NC(=O)[C@H](CO)NC(=O)[C@@H](NC(=O)[C@H](Cc1ccccc1)NC(=O)[C@@H](NC(=O)CNC(=O)[C@H](CCC(N)=O)NC(=O)C(C)(C)NC(=O)[C@@H](N)Cc1c[nH]cn1)[C@@H](C)O)[C@@H](C)O)C(C)C)C(=O)N[C@@H](CCCCNC(=O)CC[C@H](NC(=O)CC[C@H](NC(=O)CC[C@H](NC(=O)CCCCCCCCCCCCCCCCC(=O)O)C(=O)O)C(=O)O)C(=O)O)C(=O)N[C@H](C(N)=O)[C@@H](C)O [Chem. 14, N^ε28-[(4S)-4-carboxy-4-[[(4S)-4-carboxy-4-[[(4S)-4-carboxy-4-(17-carboxyheptadecanoylamino)butanoyl]amino]butanoyl]amino]butanoyl]-[Aib2,Leu10,Arg12,Ala16,Arg20,Ile27,Lys28]-Glucagon amide] (HELM PEPTIDE1{H.[Aib].Q.G.T.F.T.S.D.L.S.R.Y.L.D.A.R.R.A.R.D.F.V.Q.W.L.I.K.T.[am]}|PEPTIDE2{[O=C(O)CCCCCCCCCCCCCCCCC(=O)[*:2]].[gGlu].[gGlu].[gGlu]}$PEPTIDE1,PEPTIDE2,28:R3-4:R2$$$V2.0)
3	0.1	CC[C@H](C)[C@H](NC(=O)[C@H](CC(C)C)NC(=O)[C@H](Cc1c[nH]c2ccccc12)NC(=O)[C@H](CCC(N)=O)NC(=O)[C@@H](NC(=O)[C@H](Cc1ccccc1)NC(=O)[C@H](CC(=O)O)NC(=O)[C@H](CCC(N)=O)NC(=O)[C@H](C)NC(=O)[C@H](CCCNC(=N)N)NC(=O)[C@H](CCCNC(=N)N)NC(=O)[C@H](CO)NC(=O)[C@H](CCC(=O)O)NC(=O)[C@H](CC(C)C)NC(=O)[C@H](Cc1ccc(O)cc1)NC(=O)[C@H](CCCCN)NC(=O)[C@H](CO)NC(=O)[C@@H](NC(=O)[C@H](CC(=O)O)NC(=O)[C@H](CO)NC(=O)[C@@H](NC(=O)[C@H](Cc1ccccc1)NC(=O)[C@@H](NC(=O)CNC(=O)[C@H](CCC(N)=O)NC(=O)C(C)(C)NC(=O)[C@@H](N)Cc1c[nH]cn1)[C@@H](C)O)[C@@H](C)O)C(C)C)C(C)C)C(=O)N[C@@H](CCCCNC(=O)COCCOCCNC(=O)COCCOCCNC(=O)CC[C@H](NC(=O)CC[C@H](NC(=O)CC[C@H](NC(=O)CCCCCCCCCCCCCCCCC(=O)O)C(=O)O)C(=O)O)C(=O)O)C(=O)N[C@H](C(N)=O)[C@@H](C)O [Chem. 10, N^ε28-[2-[2-[2-[[2-[2-[2-[[(4S)-4-carboxy-4-[[(4S)-4-carboxy-4-[[(4S)-4-carboxy-4-(17-carboxyheptadecanoylamino)butanoyl]amino]butanoyl]amino]butanoyl]amino]ethoxy]ethoxy]acetyl]amino]ethoxy]ethoxy]acetyl]-[Aib2,Val10,Glu15,Ile27,Lys28]-Glucagon amide] (H-H[Aib]QGTFTSDVSKYLESRRAQDFVQWLIK([AEEA-AEEA-γGlu-γGlu-γGlu-C18 diacid])T-NH2)
